Where “and” joins values, the source holds several entries; their conditions need not be identical. Equal entries are not always repeated. Inconclusive results and toxic doses are left out. The calls were made as follows: active = survival T/C of 150% or more; inactive = T/C below 125% in these data.
Test system: CD2F1 mice, L1210 leukemia ip, survival T/C
Assay: NCI In Vivo Anticancer Drug Screen. Data for tumor model L1210 Leukemia (intraperitoneal) in CD2F1 (CDF1) mice
Conditions: endpoint: mean survival time, higher = longer survival
Outline: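 Mice carrying a transplanted tumor received test compound or vehicle alone. The value is the measurement in the treated group divided by that in the vehicle-treated control group.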

[1] = dose: 100.0 mg/kg/injection, schedule: Q01DX009 (ip), vehicle: saline with Tween-80
[2] = dose: 25.0 mg/kg/injection, schedule: Q04DX002 (ip), vehicle: saline with Tween-80
[3] = dose: 50.0 mg/kg/injection, schedule: Q04DX002 (ip), vehicle: saline with Tween-80
[4] = dose: 100.0 mg/kg/injection, schedule: Q01DX001 (ip), vehicle: saline with Tween-80
[5] = dose: 100.0 mg/kg/injection, schedule: Q04DX002 (ip), vehicle: saline with Tween-80
[6] = dose: 200.0 mg/kg/injection, schedule: Q01DX009 (ip), vehicle: saline with Tween-80
[7] = dose: 400.0 mg/kg/injection, schedule: Q01DX009 (ip), vehicle: saline with Tween-80
[8] = dose: 100.0 mg/kg/injection, schedule: Q01DX009 (ip), vehicle: saline
[9] = dose: 200.0 mg/kg/injection, schedule: Q01DX009 (ip), vehicle: saline
[10] = dose: 100.0 mg/kg/injection, schedule: Q04DX003 (ip), vehicle: saline with Tween-80
[11] = dose: 200.0 mg/kg/injection, schedule: Q04DX003 (ip), vehicle: saline with Tween-80
[12] = dose: 400.0 mg/kg/injection, schedule: Q04DX003 (ip), vehicle: saline with Tween-80
[13] = dose: 50.0 mg/kg/injection, schedule: Q04DX002 (ip), vehicle: saline
[14] = dose: 100.0 mg/kg/injection, schedule: Q04DX002 (ip), vehicle: saline

Measured: T/C

COP(=O)(O)OCC1OC(n2cnc3c(N)ncnc32)C(O)C1O (centres undefined)
inactive: dose: 12.5 mg/kg/injection, schedule: Q01DX005 (ip), vehicle: distilled water + Tween-80 96 % of control | dose: 25.0 mg/kg/injection, schedule: Q01DX005 (ip), vehicle: distilled water + Tween-80 102 % of control | dose: 50.0 mg/kg/injection, schedule: Q01DX005 (ip), vehicle: distilled water + Tween-80 106 % of control | dose: 100.0 mg/kg/injection, schedule: Q01DX005 (ip), vehicle: distilled water + Tween-80 100 % of control | dose: 200.0 mg/kg/injection, schedule: Q01DX005 (ip), vehicle: distilled water + Tween-80 106 % of control

Cc1ccc(NC(=O)OCCSc2ccc(Cl)cc2)cc1C
inactive: dose: 50.0 mg/kg/injection, schedule: Q01DX009 (ip), vehicle: saline with Tween-80 96 % of control | [1] 92 % of control

C1CC[N-]CC1.[Cl][Pt+2][Cl].[NH-]C1CC1
inactive: dose: 3.0 mg/kg/injection, schedule: Q04DX003 (ip), vehicle: water 100 % of control | dose: 6.25 mg/kg/injection, schedule: Q01DX009 (ip), vehicle: distilled water + Tween-80 120 % of control | dose: 6.25 mg/kg/injection, schedule: Q01DX009 (ip), vehicle: water 118 % of control | dose: 25.0 mg/kg/injection, schedule: Q01DX009 (ip), vehicle: water 119 % of control | dose: 25.0 mg/kg/injection, schedule: Q04DX003 (ip), vehicle: distilled water + Tween-80 90 % of control | dose: 25.0 mg/kg/injection, schedule: Q04DX003 (ip), vehicle: water 90 % of control

CC(c1ccccc1)n1cncc1CN1CCOCC1 (centres undefined)
inactive: dose: 12.5 mg/kg/injection, schedule: Q04DX002 (ip), vehicle: saline with Tween-80 91 % of control | dose: 25.0 mg/kg/injection, schedule: Q01DX001 (ip), vehicle: saline with Tween-80 102 % of control | [2] 98 % of control | dose: 50.0 mg/kg/injection, schedule: Q01DX001 (ip), vehicle: saline with Tween-80 102 % of control | [3] 98 % of control | [4] 95 % of control and 98 % of control | [5] 95 % of control

COC(=O)C1=C(C)NC(=O)NC1c1ccccc1 (centres undefined)
inactive: [1] 95 % of control | [6] 97 % of control | [7] 97 % of control

CN(C)c1n[nH]c(N)n1
inactive: dose: 76.0 mg/kg/injection, schedule: Q04DX003 (ip), vehicle: saline 97 % of control | dose: 115.0 mg/kg/injection, schedule: Q04DX003 (ip), vehicle: saline 101 % of control | dose: 174.0 mg/kg/injection, schedule: Q04DX003 (ip), vehicle: saline 104 % of control | dose: 264.0 mg/kg/injection, schedule: Q04DX003 (ip), vehicle: saline 103 % of control | dose: 400.0 mg/kg/injection, schedule: Q04DX003 (ip), vehicle: saline 105 % of control

NC(=O)CSc1ccc(Cl)cc1
inactive: [1] 113 % of control | [6] 94 % of control | [7] 102 % of control

CN1CCCC(OC(=O)N(C)C)C1 (centres undefined)
inactive: [8] 96 % of control | [9] 98 % of control

CCC1=NNC(=O)C1(Br)Br
inactive: dose: 12.5 mg/kg/injection, schedule: Q04DX003 (ip), vehicle: saline with Tween-80 100 % of control | dose: 25.0 mg/kg/injection, schedule: Q04DX003 (ip), vehicle: saline with Tween-80 102 % of control | dose: 50.0 mg/kg/injection, schedule: Q04DX003 (ip), vehicle: saline with Tween-80 105 % of control

CC(C)(C)C1(C)CC1(Br)Br (centres undefined)
inactive: [10] 105 % of control | [11] 96 % of control

OCCc1ccccc1
inactive: dose: 50.0 mg/kg/injection, schedule: Q03HX024 (ip), vehicle: saline with Tween-80 102 % of control | dose: 100.0 mg/kg/injection, schedule: Q03HX024 (ip), vehicle: saline with Tween-80 100 % of control | [10] 96 % of control | dose: 125.0 mg/kg/injection, schedule: Q01DX009 (ip), vehicle: saline 105 % of control | dose: 200.0 mg/kg/injection, schedule: Q03HX024 (ip), vehicle: saline with Tween-80 100 % of control | [11] 93 % of control | dose: 250.0 mg/kg/injection, schedule: Q01DX009 (ip), vehicle: saline 102 % of control | [12] 93 % of control | dose: 500.0 mg/kg/injection, schedule: Q01DX001 (ip), vehicle: saline with Tween-80 106 % of control | dose: 500.0 mg/kg/injection, schedule: Q01DX009 (ip), vehicle: saline 103 % of control

O=C(O)CS(=O)(=O)O
inactive: [13] 100 % of control | [14] 100 % of control | dose: 200.0 mg/kg/injection, schedule: Q04DX002 (ip), vehicle: saline 100 % of control

O=C(O)C1CCN1C1CCCCC1 (centres undefined)
inactive: [8] 98 % of control | [10] 103 % of control | [9] 100 % of control | [11] 103 % of control | dose: 400.0 mg/kg/injection, schedule: Q01DX009 (ip), vehicle: saline 98 % of control | [12] 100 % of control

O=C(O)C1C2C=CC(O2)C1CO (centres undefined)
inactive: dose: 25.0 mg/kg/injection, schedule: Q04DX002 (ip), vehicle: saline 103 % of control | [13] 100 % of control | [14] 100 % of control

CC(C)(C)c1ccc(-c2ccncc2)cc1
inactive: [5] 87 % of control | dose: 200.0 mg/kg/injection, schedule: Q04DX002 (ip), vehicle: saline with Tween-80 105 % of control

O=C(O)/C(=C(/c1ccccc1)c1ccc(Cl)cc1)c1ccccc1
inactive: [10] 98 % of control | [11] 96 % of control | [12] 98 % of control

Nc1nc(N)c2c(=O)c(CNc3ccc(C(=O)NC(CCC(=O)O)C(=O)O)cc3)c[nH]c2n1 (centres undefined)
inactive: dose: 0.25 mg/kg/injection, schedule: Q01DX005 (ip), vehicle: sodium bicarbonate 104 % of control | dose: 0.5 mg/kg/injection, schedule: Q01DX005 (ip), vehicle: sodium bicarbonate 119 % of control and 100 % of control | dose: 1.0 mg/kg/injection, schedule: Q01DX005 (ip), vehicle: sodium bicarbonate 113 % of control and 100 % of control | dose: 2.0 mg/kg/injection, schedule: Q01DX005 (ip), vehicle: sodium bicarbonate 98 % of control and 106 % of control | dose: 4.0 mg/kg/injection, schedule: Q01DX005 (ip), vehicle: sodium bicarbonate 91 % of control and 104 % of control | dose: 16.0 mg/kg/injection, schedule: Q01DX005 (ip), vehicle: sodium bicarbonate 98 % of control

O=Cc1c[nH]c2ncccc12
inactive: [10] 98 % of control | [11] 94 % of control | [12] 98 % of control

CCOn1nc(-c2cccc3ccccc23)oc1=O
inactive: [4] 91 % of control | dose: 200.0 mg/kg/injection, schedule: Q01DX001 (ip), vehicle: saline with Tween-80 95 % of control | dose: 400.0 mg/kg/injection, schedule: Q01DX001 (ip), vehicle: saline with Tween-80 95 % of control

CCOC(=O)C(c1ccccc1)c1ccccc1
inactive: [10] 102 % of control | [11] 111 % of control | [12] 103 % of control

CN(C)c1ccc(C(=O)CCN2CC=C(c3ccccc3)CC2)cc1
inactive: [5] 102 % of control

c1ccc(C[S][Sn]([c]2ccccc2)([c]2ccccc2)[c]2ccccc2)cc1
inactive: [2] 91 % of control | [3] 102 % of control | [5] 94 % of control

— PubChem BioAssay AID256 (DTP/NCI, 2004)
